In US9980943B2, “Methods of treating muscular dystrophy” (BOARD OF REGENTS OF THE NEVADA SYSTEM OF HIGHER EDUCATION, …, priority 2013, dated 2018):

Legend:
Type in all cases: cell-based, mouse
[1] = test system: α7 integrin (LacZ reporter in α7+/LacZ myotubes); experiment: Myotube α7 integrin FDG assay (Burkin assay in myotubes, 96-well); details: myotubes
[2] = test system: α7 integrin (LacZ reporter in α7βgal+/− myoblasts); experiment: Myoblast α7+/LacZ integrin FDG assay (Burkin assay in myoblasts, 96-well); details: α7+/LacZ myoblasts, 96-well
[3] = test system: β-galactosidase in CMV-LacZ C2C12 myotubes; experiment: CMV-LacZ secondary screen in C2C12 myotubes (β-Gal stabilizing assay); details: C2C12 CMV-LacZ myotubes, fold relative to DMSO
Excerpt: In order to determine compounds that acted to stabilize β-gal in myogenic cells, a CMV-LacZ C2C12 cell line was used in a secondary screen. The EGFP gene from the pEGFP (Clontech) vector was replaced by LACZ PCR product with digests of the vector/PCR product performed using EcoRI (NEB) and NotI (NEB) and ligated using T4 DNA Ligase (NEB) following standard procedures to produce the CMV-LACZ vector. The LACZ gene was generated by PCR from the pBK-RSV (Stratagene) vector using primers LACZ EcoRI F- and LACZ NotI R-. The CMV-LACZ vector was then digested with AfIII (NEB) to linearize the construct, which was then transfected in C2C12 myoblasts using Lipofectamine 2000 (Invitrogen) following the manufacturer's instructions. […] Clonal lines were selected and screened for βgal levels using the myoblast FDG assay.
The assays were used the original 96-well format and new dose-response curves for myoblasts (N=3-6 replicates for each data point), myotubes (N=3-6 replicates for data point), and CMV-LacZ secondary assay (N=2 replicates for each data point) using concentrations of 0.5 μM, 1 μM, 5 μM, 10 μM, 20 μM, and 40 μM (Tables 9-16).

Compound | Burkin Assay in Myotubes, α7 integrin LacZ reporter signal relative to DMSO ([1]; 0.5 uM) | Burkin Assay in Myotubes, α7 integrin LacZ reporter signal relative to DMSO ([1]; 1 uM) | Burkin Assay in Myotubes, α7 integrin LacZ reporter signal relative to DMSO ([1]; 5 uM) | Burkin Assay in Myotubes, α7 integrin LacZ reporter signal relative to DMSO ([1]; 10 uM) | Burkin Assay in Myotubes, α7 integrin LacZ reporter signal relative to DMSO ([1]; 20 uM) | Burkin Assay in Myotubes, α7 integrin LacZ reporter signal relative to DMSO ([1]; 40 uM) | Burkin Assay in Myoblasts, signal relative to DMSO ([2]; 0.5 uM) | Burkin Assay in Myoblasts, signal relative to DMSO ([2]; 1 uM) | Burkin Assay in Myoblasts, signal relative to DMSO ([2]; 5 uM) | Burkin Assay in Myoblasts, signal relative to DMSO ([2]; 10 uM) | Burkin Assay in Myoblasts, signal relative to DMSO ([2]; 20 uM) | Burkin Assay in Myoblasts, signal relative to DMSO ([2]; 40 uM) | CMV-LACZ in Myotubes, signal relative to DMSO ([3]; 5 uM) | CMV-LACZ in Myotubes, signal relative to DMSO ([3]; 10 uM) | CMV-LACZ in Myotubes, signal relative to DMSO ([3]; 20 uM) | CMV-LACZ in Myotubes, signal relative to DMSO ([3]; 40 uM) | other results
COc1ccc(CCNC(=O)c2cc(-c3cc(C)ccc3O)n[nH]2)cc1OC [MLS000552080-01] | 0.9672 | 1.15 | 1.214 | 1.24 | 1.0378 | 0.9286 | 0.9689 | 0.9784 | 1.056 | 1.089 | 0.9333 | 0.8855 | 1.197 | 1.0688 | 0.9522 | 0.8044 | –
Cc1ccc(C2=C(CC(=O)O)C(=O)CC2)cc1 [MLS000553673-01] | – | – | – | – | – | – | – | – | – | – | – | – | 0.8021 | 0.9603 | 1.005 | 0.9127 | Burkin Assay in Myotubes (signal relative to DMSO) ([1]; 0.5 uM): 0.8749; Burkin Assay in Myotubes (signal relative to DMSO) ([1]; 1 uM): 0.8923; Burkin Assay in Myotubes (signal relative to DMSO) ([1]; 5 uM): 1.304; Burkin Assay in Myotubes (signal relative to DMSO) ([1]; 10 uM): 1.161; Burkin Assay in Myotubes (signal relative to DMSO) ([1]; 20 uM): 1.088; Burkin Assay in Myotubes (signal relative to DMSO) ([1]; 40 uM): 1.134; Burkin Assay in Myoblasts, value relative to DMSO ([2]; 0.5 uM): 1.009; Burkin Assay in Myoblasts, value relative to DMSO ([2]; 1 uM): 0.8952; Burkin Assay in Myoblasts, value relative to DMSO ([2]; 5 uM): 1.038; Burkin Assay in Myoblasts, value relative to DMSO ([2]; 10 uM): 1.0007; Burkin Assay in Myoblasts, value relative to DMSO ([2]; 20 uM): 0.9043; Burkin Assay in Myoblasts, value relative to DMSO ([2]; 40 uM): 0.8892
O=C(Nc1ccc(Oc2cccnc2)cc1)c1ccccc1Cl [MLS000574647-01] | 0.935 | 0.8646 | 1.007 | 0.8596 | 1.006 | 0.8219 | 1.081 | 1.027 | 0.9641 | 0.9515 | 0.8985 | 0.8343 | 0.9166 | 0.9364 | 0.962 | 1.0095 | –
COc1cc2c(cc1NC(=O)Cc1ccc(C)cc1)oc1ccccc12 [MLS000579238-01] | – | – | – | – | – | – | – | – | – | – | – | – | – | – | – | – | fold induction at 0.5 µM ([1]; Mus musculus, Myotube, 0.5 uM, read-out: Burkin Assay in Myotubes, α7 integrin LacZ reporter signal relative to DMSO): 0.951; fold induction at 1 µM ([1]; Mus musculus, Myotube, 1 uM, read-out: Burkin Assay in Myotubes, α7 integrin LacZ reporter signal relative to DMSO): 1.11; fold induction at 5 µM ([1]; Mus musculus, Myotube, 5 uM, read-out: Burkin Assay in Myotubes, α7 integrin LacZ reporter signal relative to DMSO): 1.01; fold induction at 10 µM ([1]; Mus musculus, Myotube, 10 uM, read-out: Burkin Assay in Myotubes, α7 integrin LacZ reporter signal relative to DMSO): 1.1; fold induction at 20 µM ([1]; Mus musculus, Myotube, 20 uM, read-out: Burkin Assay in Myotubes, α7 integrin LacZ reporter signal relative to DMSO): 0.856; fold induction at 40 µM ([1]; Mus musculus, Myotube, 40 uM, read-out: Burkin Assay in Myotubes, α7 integrin LacZ reporter signal relative to DMSO): 0.771; fold induction at 0.5 µM ([2]; Mus musculus, Myoblast, 48 h, 0.5 uM, read-out: Burkin Assay in Myoblasts, signal relative to DMSO): 0.961; fold induction at 1 µM ([2]; Mus musculus, Myoblast, 48 h, 1 uM, read-out: Burkin Assay in Myoblasts, signal relative to DMSO): 1.11; fold induction at 5 µM ([2]; Mus musculus, Myoblast, 48 h, 5 uM, read-out: Burkin Assay in Myoblasts, signal relative to DMSO): 1.17; fold induction at 10 µM ([2]; Mus musculus, Myoblast, 48 h, 10 uM, read-out: Burkin Assay in Myoblasts, signal relative to DMSO): 1.3; fold induction at 20 µM ([2]; Mus musculus, Myoblast, 48 h, 20 uM, read-out: Burkin Assay in Myoblasts, signal relative to DMSO): 1.11; fold induction at 40 µM ([2]; Mus musculus, Myoblast, 48 h, 40 uM, read-out: Burkin Assay in Myoblasts, signal relative to DMSO): 0.912; fold induction at 5 µM ([3]; Mus musculus, C2C12, read-out: CMV-LACZ in Myotubes, signal relative to DMSO, 5 uM): 0.815; fold induction at 10 µM ([3]; Mus musculus, C2C12, read-out: CMV-LACZ in Myotubes, signal relative to DMSO, 10 uM): 0.872; fold induction at 20 µM ([3]; Mus musculus, C2C12, read-out: CMV-LACZ in Myotubes, signal relative to DMSO, 20 uM): 0.83; fold induction at 40 µM ([3]; Mus musculus, C2C12, read-out: CMV-LACZ in Myotubes, signal relative to DMSO, 40 uM): 0.944
